Test results from patent US9284303B2, “Benzimidazole cannabinoid agonists bearing a substituted heterocyclic group” (priority 2006, dated 2016).
Where two headings read alike, the source gives them in different places.

Assays:
[1] = target: T1, human CB2 (hCB2) receptor (Homo sapiens, UniProt P34972); assay: Inhibition of forskolin-activated cAMP production upon activation of hCB2 (HTRF), CHO-K1 cells; format: cell-based; conditions: for EC50: forskolin-activated cAMP, pEC50=-log(EC50); for ratio CB2 agonism over CB1 agonism: Table C-1, selectivity hCB2 over hCB1; for ratio CB2 over CB1 agonism: Table C-3, comparison of art compounds A to E with compounds of the invention
T1 construct: expressed in transfected cells; host or cells: CHO-K1
T1 sequence (P34972 whole entry): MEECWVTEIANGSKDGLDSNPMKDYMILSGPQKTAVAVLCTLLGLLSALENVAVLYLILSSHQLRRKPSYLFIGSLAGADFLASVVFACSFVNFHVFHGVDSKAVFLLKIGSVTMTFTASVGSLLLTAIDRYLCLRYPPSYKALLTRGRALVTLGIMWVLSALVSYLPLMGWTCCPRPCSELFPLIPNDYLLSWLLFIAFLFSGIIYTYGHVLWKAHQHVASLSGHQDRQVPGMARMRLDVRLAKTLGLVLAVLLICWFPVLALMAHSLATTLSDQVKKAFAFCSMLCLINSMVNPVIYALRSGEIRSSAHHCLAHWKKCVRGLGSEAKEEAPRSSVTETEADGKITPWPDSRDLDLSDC
Procedure: (§1) Functional activity of the test compounds was assessed by measuring their potency to inhibit forskolin-activated cAMP production upon activation of the human CB1 (hCB1) or human CB2 (hCB2) receptor through homogenous time resolved fluorescence (HTRF) assays.
(§2) Before the experiments, medium was removed, cells were washed with PBS/EDTA (140 mM NaCl, 1 mM Naz-EDTA, 8 mM Na2HPO4.2H2O, 8.5 mM KH2PO4, 2.7 mM KCl, 21 mM glucose), resuspended in stimulation buffer (HBSS 1x, IBMX 1 mM, Hepes 5 mM, MgCl2 10 mM, BSA 0.1%, pH 7.4). Cells were diluted to a concentration of 8.10^5 cell/ml for hCB1 experiments and 10^6 cells/ml for hCB2 experiments. Assays were performed using the cAMP Dynamic HTRF kit (CIS bio international, France) according to the recommendations of the manufacturer.
Then, 20 μl of the diluted hCB2-CHO-K1 cells was added (20,000 cells/well). After 30 minutes incubation in dark at room temperature, 10 μl cAMP-XL665 and 10 μl anti-cAMP cryptate (both at a final dilution of 1/100) was added to the cells.

[2] = target: T2, human CB1 (hCB1) receptor (Homo sapiens, UniProt P21554); assay: Inhibition of forskolin-activated cAMP production upon activation of hCB1 (HTRF), CHO-K1 cells; format: cell-based; conditions: CB1 pEC50, hCB1-CHO-K1 cells, forskolin-activated cAMP, pEC50=-log(EC50)
T2 construct: expressed in transfected cells; host or cells: CHO-K1
T2 sequence (P21554 whole entry): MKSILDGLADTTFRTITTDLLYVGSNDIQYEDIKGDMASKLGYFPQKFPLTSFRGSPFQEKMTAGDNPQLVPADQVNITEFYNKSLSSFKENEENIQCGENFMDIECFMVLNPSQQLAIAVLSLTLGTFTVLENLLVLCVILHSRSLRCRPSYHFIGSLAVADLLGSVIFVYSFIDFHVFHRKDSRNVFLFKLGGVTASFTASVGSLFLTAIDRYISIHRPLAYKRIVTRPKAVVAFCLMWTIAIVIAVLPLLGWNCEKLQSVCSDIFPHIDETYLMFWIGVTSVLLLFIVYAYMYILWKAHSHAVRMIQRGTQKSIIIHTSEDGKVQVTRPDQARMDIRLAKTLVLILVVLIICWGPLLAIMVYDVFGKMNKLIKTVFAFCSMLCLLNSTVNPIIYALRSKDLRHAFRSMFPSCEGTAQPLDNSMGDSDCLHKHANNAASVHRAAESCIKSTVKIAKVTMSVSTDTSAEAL
Procedure: as §1
as §2, with “CHO-K1 cells stably transfected with either hCB1 or hCB2 were grown up to 80-90% confluence in T175 Falcon flasks in DMEM/NUT MIX F-12 culture medium complemented with 2% Solution A (5.10^6 IU/l penicillin G, 5 g/l streptomycin sulphate, 5.5 g/l pyruvate, 14.6 g/l L-glutamine, 1M NaOH) and 10% foetal calf serum. Before” for “Before”
For CB1, each well of a 96 flat bottom black polystyrene assay plate (Costar) was filled with 25 μl stimulation buffer containing 6 μM forskolin and either test compound (in 2% DMSO), 2% DMSO or 2 μM CP55490 (in 2% DMSO). Then, 25 μl of the diluted cells was added (20,000 cells/well). After 30 minutes incubation in dark at room temperature, 25 μl cAMP-XL665 and 25 μl anti-cAMP cryptate (both at a final dilution of 1/80) was added to the cells.
After equilibration of the reaction mixtures for 1 to 24 hours in dark at room temperature, fluorescence was measured at 665 nm and 620 nm using a Discovery microplate fluorescence counter (Perkin Elmer), and the signal ratio of 665 nm/620 nm was calculated. The signal ratios of the test compounds were expressed relative to the signal ratios of the DMSO control (maximal signal ratio, no inhibition of cAMP) and CP55490 or WIN55212-2 for hCB1 and hCB2, respectively (minimal signal ratio, maximal inhibition of cAMP). From the dose response curves generated for each test compound, the dose at which 50% of the maximal inhibition of cAMP level is observed (EC50, expressed in the Tables as pEC50=−log(EC50) values) and the level of inhibition reached with 10 μM of the test compound compared to CP55490 (for hCB1) or WIN55212-2 (for hCB2) was calculated.

[3] = hCB2-CHO-K1 cells, read-out: CB2 pEC50 (converted)

Compound | EC50 [1, 3] [nM] | EC50 [2] [nM] | ratio CB2 agonism over CB1 agonism [1] | ratio CB2 over CB1 agonism [1] | EC50 ([1]; CB2 pEC50, hCB2-CHO-K1 cells) [nM] | ratio CB2 agonism over CB1 agonism ([1]; listed as 54) | ratio CB2 agonism over CB1 agonism ([1]; listed as 58)
CC(C)(C)c1nc2cc([S+]([O-])c3cc[n+]([O-])cc3)ccc2n1CC1CCOCC1 (centres unmarked) [Co. No. 2] | 38 | > 10000 | – | – | – | – | –
CCOc1cc(S(=O)(=O)c2ccc3c(c2)nc(C(C)(C)C)n3CC2CCOCC2)ccn1 [Co. No. 9] | 0.331 | 1410 | 4266 | 4266 | – | – | –
Cc1cc(S(=O)(=O)c2ccc3c(c2)nc(C(C)(C)C)n3CC2CCOCC2)ccn1 [Co. No. 13] | 1.26 | 2040 | 1622 | – | – | – | –
CC(C)(C)c1nc2cc(S(=O)(=O)c3ccnc(OC(F)F)c3)ccc2n1CC1CCOCC1 [Co. No. 14] | 0.776 | 3800 | 4898 | 4898 | – | – | –
Cc1noc(C)c1S(=O)(=O)c1ccc2c(c1)nc(C(C)(C)C)n2CC1CCOCC1 [Co. No. 15] | 1.05 | 575 | 556 | – | – | – | –
CC(C)(C)c1nc2cc(S(=O)(=O)c3ccnc(F)c3)ccc2n1CC1CCOCC1 [Co. No. 25] | 0.813 | 407 | 495 | 495 | – | – | –
CCC(C)(C)c1nc2cc(S(=O)(=O)c3ccc(OC)nn3)ccc2n1CC1CCC1 [Co. No. 26] | 0.794 | 537 | 676 | – | – | – | –
CC(C)(C)c1nc2cc([S+]([O-])c3ccc(Cl)nn3)ccc2n1CC1CCOCC1 (centres unmarked) [Co. No. 31] | 1.2 | 427 | 353 | – | – | – | –
CC(=O)c1ccc([S+]([O-])c2ccc3c(c2)nc(C(C)(C)C)n3CC2CCOCC2)nc1 (centres unmarked) [Co. No. 32] | 2.57 | 7590 | 2951 | – | – | – | –
CC(C)(C)c1nc2cc(S(=O)(=O)c3ccc(C(N)=O)cn3)ccc2n1CC1CCOCC1 [Co. No. 33] | 3.09 | 5750 | 1884 | – | – | – | –
CC(C)(C)c1nc2cc(S(=O)(=O)c3ccc[n+]([O-])c3)ccc2n1CC1CCOCC1 [Co. No. 34] | – | 7410 | 4732 | – | 1.58 | – | –
COC(=O)c1ccc(S(=O)(=O)c2ccc3c(c2)nc(C(C)(C)C)n3CC2CCCCC2)nc1 [Co. No. 35] | 0.407 | 32.4 | 79 | – | – | – | –
CC(C)(C)c1nc2cc(S(=O)(=O)c3ccc(C(=O)N4CCCC4)cn3)ccc2n1CC1CCCCC1 [Co. No. 38] | 2.75 | > 10000 | >3631 | – | – | – | –
CC(C)(C)c1nc2cc(S(=O)(=O)c3ccc(O)nc3)ccc2n1CC1CCCCC1 [Co. No. 39] | 1.7 | 2040 | 1216 | – | – | – | –
CC(C)(C)c1nc2cc(S(=O)(=O)c3ccc(C(=O)O)cn3)ccc2n1CC1CCCCC1 [Co. No. 46] | 1.05 | 3890 | 3758 | – | – | – | –
CC(C)(C)c1nc2cc(S(=O)(=O)c3ccc(S(N)(=O)=O)s3)ccc2n1CC1CCOCC1 [Co. No. 47] | 1.7 | 1480 | 871 | – | – | – | –
COc1ccc(S(=O)(=O)c2ccc3c(c2)nc(C(C)(C)C)n3CC2CCOCC2)cn1 [Co. No. 54] | 0.933 | 123 | – | – | – | 133 | –
CC(C)(C)c1nc2cc(S(=O)(=O)c3ccc(S(C)(=O)=O)s3)ccc2n1CC1CCOCC1 [Co. No. 58] | 0.832 | 1820 | – | – | – | – | 2188
